Assay results published in ChEMBL document CHEMBL5226358, “Discovery of Dimeric Arylsulfonamides as Potent ADAM8 Inhibitors” (ACS Med Chem Lett, 2021).
Calls of active or inactive are those of the source. The calls are words filed in the database; no cut-off is given here.

Columns and labels:
[1] = molecular target: T1, Disintegrin and metalloproteinase domain-containing protein 8 (Homo sapiens) (UniProt P78325); experiment: Inhibition of ADAM8 in human MDA-MB-231 cells assessed as inhibition of ERK1/2 phosphorylation at Thr202/Tyr204 residues at 10 uM incubated for 48 hrs by western blot analysis; type: cell-based
T1 sequence (whole entry): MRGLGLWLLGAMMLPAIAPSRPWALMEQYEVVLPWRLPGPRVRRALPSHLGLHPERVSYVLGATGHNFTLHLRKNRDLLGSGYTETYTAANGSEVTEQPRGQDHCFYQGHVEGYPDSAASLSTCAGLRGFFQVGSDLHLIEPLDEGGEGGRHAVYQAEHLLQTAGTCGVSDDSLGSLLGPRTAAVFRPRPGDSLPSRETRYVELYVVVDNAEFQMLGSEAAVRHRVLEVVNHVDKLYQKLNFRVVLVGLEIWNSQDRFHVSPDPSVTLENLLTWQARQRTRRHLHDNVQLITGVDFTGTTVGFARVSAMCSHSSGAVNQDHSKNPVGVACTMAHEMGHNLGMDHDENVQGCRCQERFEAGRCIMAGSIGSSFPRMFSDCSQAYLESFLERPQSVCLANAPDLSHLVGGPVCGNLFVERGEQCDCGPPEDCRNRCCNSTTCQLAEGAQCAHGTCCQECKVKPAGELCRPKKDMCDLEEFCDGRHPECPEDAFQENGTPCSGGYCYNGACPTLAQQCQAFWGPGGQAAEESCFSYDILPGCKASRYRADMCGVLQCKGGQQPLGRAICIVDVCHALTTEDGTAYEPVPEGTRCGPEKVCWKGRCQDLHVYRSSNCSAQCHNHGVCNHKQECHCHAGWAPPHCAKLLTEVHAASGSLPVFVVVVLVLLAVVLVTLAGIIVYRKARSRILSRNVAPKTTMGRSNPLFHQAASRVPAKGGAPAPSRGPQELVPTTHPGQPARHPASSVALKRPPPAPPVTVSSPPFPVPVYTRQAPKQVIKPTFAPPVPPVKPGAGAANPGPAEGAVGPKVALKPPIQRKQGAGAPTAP

[2] = molecular target: T1, Disintegrin and metalloproteinase domain-containing protein 8 (Homo sapiens); experiment: Inhibition of ADAM8 in human MDA-MB-231 cells assessed as inhibition of Akt phosphorylation at Ser473 residue at 10 uM incubated for 48 hrs by western blot analysis; type: cell-based

O=C(NCCC[C@@H](NS(=O)(=O)c1ccc(OCc2cc(Br)cc(Br)c2)cc1)C(=O)NO)NCCC[C@@H](NS(=O)(=O)c1ccc(OCc2cc(Br)cc(Br)c2)cc1)C(=O)NO
inhibition [1]: inactive
inhibition [2]: inactive

O=C(CCCNC(=O)c1cccc(C(=O)NCCCC(=O)NCCC[C@@H](NS(=O)(=O)c2ccc(OCc3cc(Br)cc(Br)c3)cc2)C(=O)NO)c1)NCCC[C@@H](NS(=O)(=O)c1ccc(OCc2cc(Br)cc(Br)c2)cc1)C(=O)NO
inhibition [1]: inactive
inhibition [2]: inactive

O=C(NCCC[C@@H](NS(=O)(=O)c1ccc(OCc2cc(Br)cc(Br)c2)cc1)C(=O)NO)c1cccc(C(=O)NCCC[C@@H](NS(=O)(=O)c2ccc(OCc3cc(Br)cc(Br)c3)cc2)C(=O)NO)c1
inhibition [1]: inactive
inhibition [2]: inactive
